Patent publication US11634425B2, “Pharmaceutical compounds” (priority 2019, dated 2023)

Columns and labels:
RSV A2 = experiment: RSV plaque reduction assay; type: cell-based, respiratory syncytial virus (RSV); conditions: human respiratory syncytial virus, HepG2, Hep-G2 cells, mean of at least two experiments
Method: (§1) Compounds were subjected to RSV plaque reduction assays according to the following protocol. Plaque EC50 and cell toxicity CC50 values are a mean of at least two experiments and figures are rounded to whole units.
Hep-G2 cells (ECACC, 85011430) were passaged in flasks and seeded in 24-well plates in DMEM containing antibiotics and supplemented with 10% FBS. During inoculation and subsequent incubation, cells were cultured in DMEM containing 2% FBS. 100 plaque forming unit/well of RSV (RSV A2 ECACC, 0709161v) was mixed with eight serial dilutions of compound. Subsequently, 100 μL of the virus/compound mixtures was added to confluent Hep-G2 cell monolayers. The cells and virus/compound mixtures were incubated at 37° C. in a humidified 5% CO2 incubator for 2 h prior to removal of the inoculum and addition of 1 mL of overlay (DMEM containing 2% FBS and 0.8% CMC) containing compound dilutions. The cells and were incubated at 37° C. in a humidified 5% CO2 incubator for 2 days.
Cells were washed with PBS before adding 75/25% […] EtOH/MeOH, for 3 min. Fixative was removed and plates were washed with PBS. A pre-titrated amount of the primary antibody was added in 200 μL PBS/2% milk powder, and plates incubated for 90 min at 37° C. The plates were washed 3 times with PBS/0.05% Tween20 before addition of rabbit anti-goat horse radish peroxidase in 200 μL PBS/2% milk powder, and incubated for 1 h at 37° C. Following three wash steps with PBS/0.05% Tween20, 200 μL ready-to-use TrueBlue was added and plates were incubated at rt for 10-15 min before washing with water. After removal of water, plates were air-dried in the dark.
(§2) Plates were scanned and analysed using the Immunospot S6 Macro analyser, which is equipped with BioSpot analysis software for counting immunostained plaques (virospots). Plaque counts were used to calculate % c infection relative to the mean of the plaque count in the virus control wells for RSV. The EC50 value was calculated as 50% reduction in signal, respectively, by interpolation of inhibition curves fitted with a 4-parameter nonlinear regression with a variable slope in Dotmatics. Plaque EC50 and cell toxicity CC50 values are a mean of at least two experiments and figures are rounded to whole units.

Cell cytotoxicity (CC50) = type: cell-based; conditions: human; mean of at least two experiments
From the text: as §1, §2

Row | SMILES | EC50 (RSV A2) [nM] | CC50 (Cell cytotoxicity (CC50)) [nM]
1 | Cc1ccc2nc(-c3ccc(F)cc3F)c(C(=O)N[C@H]3N=C(c4ccccc4)c4ccccc4NC3=O)n2n1 [Example 90, 2-(2,4-Difluorophenyl)-6-methyl-N-[(3S)-2-oxo-5-phenyl-1,3-dihydro-1,4-benzodiazepin-3-yl]imidazo[1,2-b]pyridazine-3-carboxamide] | 8 | > 25000
2 | COc1ccc(-c2nn3cccnc3c2C(=O)N[C@H]2N=C(c3ccccc3)c3cccc(F)c3NC2=O)cn1 [Example 76, N-[(3S)-9-fluoro-2-oxo-5-phenyl-1,3-dihydro-1,4-benzodiazepin-3-yl]-2-(6-methoxypyridin-3-yl)pyrazolo[1,5-a]pyrimidine-3-carboxamide] | 93 | > 25000
3 | CCNc1ccc(-c2nn3cccnc3c2C(=O)N[C@H]2N=C(c3ccccc3)c3ccccc3NC2=O)c(F)n1 [Example 65, 2-[6-(Ethylamino)-2-fluoropyridin-3-yl]-N-[(3S)-2-oxo-5-phenyl-1,3-dihydro-1,4-benzodiazepin-3-yl]pyrazolo[1,5-a]pyrimidine-3-carboxamide] | 18 | > 25000
4 | O=C(N[C@H]1N=C(c2ccccc2)c2cccc(F)c2NC1=O)c1c(-c2ccccc2)nc2ccc(N3C[C@H]4C[C@@H]3CO4)nn12 [Example 82, N-[(3S)-9-fluoro-2-oxo-5-phenyl-1,3-dihydro-1,4-benzodiazepin-3-yl]-6-[(1R,4R)-2-oxa-5-azabicyclo[2.2.1]heptan-5-yl]-2-phenylimidazo[1,2-b]pyridazine-3-carboxamide] | 81 | > 25000
5 | COCCc1ccc(-c2nn3cccnc3c2C(=O)N[C@H]2N=C(c3ccccc3)c3cccc(F)c3NC2=O)cn1 [Example 51, 2-[6-(2-methoxyethyl)pyridin-3-yl]-N-[(3S)-9-fluoro-2-oxo-5-phenyl-1,3-dihydro-1,4-benzodiazepin-3-yl]pyrazolo[1,5-a]pyrimidine-3-carboxamide] | 92 | > 25000
6 | Cc1ccn2nc(-c3ccc(F)cc3F)c(C(=O)N[C@H]3N=C(c4ccccc4)c4ccccc4NC3=O)c2n1 [Example 35, 2-(2,4-Difluorophenyl)-5-methyl-N-[(3S)-2-oxo-5-phenyl-1,3-dihydro-1,4-benzodiazepin-3-yl]pyrazolo[1,5-a]pyrimidine-3-carboxamide] | 29 | > 25000
7 | COc1ccc(F)c(-c2nn3cccnc3c2C(=O)N[C@H]2N=C(c3ccccc3)c3cccc(F)c3NC2=O)c1 [Example 8, 2-(2-Fluoro-5-methoxyphenyl)-N-[(3S)-9-fluoro-2-oxo-5-phenyl-1,3-dihydro-1,4-benzodiazepin-3-yl]pyrazolo[1,5-a]pyrimidine-3-carboxamide] | 54 | > 25000
8 | Cc1ccn2nc(-c3ccccc3F)c(C(=O)N[C@H]3N=C(c4ccccc4)c4ccccc4NC3=O)c2n1 [Example 22, 2-(2-Fluorophenyl)-5-methyl-N-[(3S)-2-oxo-5-phenyl-1,3-dihydro-1,4-benzodiazepin-3-yl]pyrazolo[1,5-a]pyrimidine-3-carboxamide] | 33 | > 25000
9 | CC(C)Oc1ccc(-c2nn3cccnc3c2C(=O)N[C@H]2N=C(c3ccccc3)c3ccccc3NC2=O)c(F)c1 [Example 15, 2-(2-Fluoro-4-propan-2-yloxyphenyl)-N-[(3S)-2-oxo-5-phenyl-1,3-dihydro-1,4-benzodiazepin-3-yl]pyrazolo[1,5-a]pyrimidine-3-carboxamide] | 91 | > 25000
10 | Cc1ccc2nc(-c3cncc(C(F)(F)F)c3)c(C(=O)N[C@H]3N=C(c4ccccc4)c4cccc(F)c4NC3=O)n2n1 [Example 47, N-[(3S)-9-fluoro-2-oxo-5-phenyl-1,3-dihydro-1,4-benzodiazepin-3-yl]-6-methyl-2-[5-(trifluoromethyl)pyridin-3-yl]imidazo[1,2-b]pyridazine-3-carboxamide] | 101 | > 25000
11 | Cc1cnc2c(C(=O)N[C@H]3N=C(c4ccccc4)c4ccccc4NC3=O)c(-c3ccccc3F)nn2c1 [Example 33, 2-(2-Fluorophenyl)-6-methyl-N-[(3S)-2-oxo-5-phenyl-1,3-dihydro-1,4-benzodiazepin-3-yl]pyrazolo[1,5-a]pyrimidine-3-carboxamide] | 29 | > 25000
12 | Cc1ccc2nc(-c3ccc(N4CCOCC4)nc3)c(C(=O)N[C@H]3N=C(c4ccccc4)c4ccccc4NC3=O)n2n1 [Example 104, 6-Methyl-2-(6-morpholin-4-ylpyridin-3-yl)-N-[(3S)-2-oxo-5-phenyl-1,3-dihydro-1,4-benzodiazepin-3-yl]imidazo[1,2-b]pyridazine-3-carboxamide] | 29 | > 25000
13 | Cc1ccc2nc(-c3cncc(F)c3)c(C(=O)N[C@H]3N=C(c4ccccc4)c4cccc(F)c4NC3=O)n2n1 [Example 102, N-[(3S)-9-fluoro-2-oxo-5-phenyl-1,3-dihydro-1,4-benzodiazepin-3-yl]-2-(5-fluoropyridin-3-yl)-6-methylimidazo[1,2-b]pyridazine-3-carboxamide] | 105 | > 19200
14 | CC1COCCN1c1ccc(-c2nn3cccnc3c2C(=O)N[C@H]2N=C(c3ccccc3)c3ccccc3NC2=O)cn1 (stereo partly drawn) [Example 67, 2-[6-(3-Methylmorpholin-4-yl)pyridin-3-yl]-N-[(3S)-2-oxo-5-phenyl-1,3-dihydro-1,4-benzodiazepin-3-yl]pyrazolo[1,5-a]pyrimidine-3-carboxamide] | 141 | > 25000
15 | CC(C)(O)Cc1ccc(-c2nn3cccnc3c2C(=O)N[C@H]2N=C(c3ccccc3)c3cccc(F)c3NC2=O)cn1 [Example 77, 2-[6-(2-Hydroxy-2-methylpropyl)pyridin-3-yl]-N-[(3S)-9-fluoro-2-oxo-5-phenyl-1,3-dihydro-1,4-benzodiazepin-3-yl]pyrazolo[1,5-a]pyrimidine-3-carboxamide] | 104 | > 25000
16 | Cc1cc(-c2nc3ccc(C)nn3c2C(=O)N[C@H]2N=C(c3ccccc3)c3cccc(F)c3NC2=O)ccn1 [Example 98, N-[(3S)-9-fluoro-2-oxo-5-phenyl-1,3-dihydro-1,4-benzodiazepin-3-yl]-6-methyl-2-(2-methylpyridin-4-yl)imidazo[1,2-b]pyridazine-3-carboxamide] | 48 | > 25000
17 | O=C(N[C@H]1N=C(c2ccccc2)c2ccccc2NC1=O)c1c(-c2cncc(C3CC3)c2)nn2cccnc12 [Example 31, 2-(5-Cyclopropylpyridin-3-yl)-N-[(3S)-2-oxo-5-phenyl-1,3-dihydro-1,4-benzodiazepin-3-yl]pyrazolo[1,5-a]pyrimidine-3-carboxamide] | 96 | > 25000
18 | O=C(N[C@H]1N=C(c2ccccc2)c2cccc(F)c2NC1=O)c1c(-c2ccccc2F)nn2ccc(N3CCCC3)nc12 [Example 40, N-[(3S)-9-Fluoro-2-oxo-5-phenyl-1,3-dihydro-1,4-benzodiazepin-3-yl]-2-(2-fluorophenyl)-5-pyrrolidin-1-ylpyrazolo[1,5-a]pyrimidine-3-carboxamide] | 51 | > 25000
19 | C[C@H]1COCCN1c1ccc(-c2nn3cccnc3c2C(=O)N[C@H]2N=C(c3ccccc3)c3ccccc3NC2=O)cn1 (single isomer, unassigned) [Example 124, 2-(6-[(3S*)-3-methylmorpholin-4-yl]pyridin-3-yl)-N-[(3S)-2-oxo-5-phenyl-2,3-dihydro-1H-1,4-benzodiazepin-3-yl]pyrazolo[1,5-a]pyrimidine-3-carboxamide] | 83 | > 25000
